Reference: patent US20240335431A1, “1-H-PYRROLO[2,3-c]PYRIDINE COMPOUNDS” (Acerta Pharma B.V., priority 2023, published 2024)

Key:
[1] = test system: HEL cells; test: Proliferation assay, HEL control cell line (CellTiter-Glo, 7 days); format: cell-based, human
Summary of the method: (§1)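 Cells were seeded at line-specific low densities for linear growth, exposed to 3.16-fold serial compound dilutions at 0.1% DMSO, and incubated 7 days at 37 °C, 5% CO2. Viability was read by CellTiter-Glo 2.0 luminescence; IC50 came from one-site fits of % inhibition, normalized between DMSO-treated cells (100%) and a day-0 plate (0%).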

[2] = test system: MV4;11 cells; test: Proliferation assay, MV4;11 (CellTiter-Glo, 7 days); format: cell-based, human; settings: read-out: MV-4-11 IC50
Description: (§2) The anti-proliferative effect of compounds was tested in human leukaemia cell lines. The cell lines […] and MV4; 11 each harbor an MLL translocation expressing the MLL fusion proteins MLL-AF9 and MLL-AF4, respectively. Each also express the wildtype protein from the second allele. OCI-AML3 cells carrying the NPM1c gene mutation were also tested.
(§3) MOLM-13 and HEL cells were cultured in RPMI 1640 (Gibco) supplemented with 10% FBS (Gibco) and 1% Pen/Strep (Gibco). MV4; 11 cells were cultured in IMDM (Gibco) supplemented with 10% FBS (Gibco) and 1% Pen/Strep (Gibco). OCI-AML3 cells were cultured in MEMa (Gibco) supplemented with 20% FBS (Gibco) and 1% Pen/Strep (Gibco).
(§4) To assess proliferative effects, 125 MOLM-13 cells, 300 MV4; 11 cells, 75 OCI-AML3 cells, and 200 HEL cells were seeded in 40 μL media per well in 384-well ViewPlates (Perkin Elmer, 6007480). Cell seeding numbers were chosen based on growth curves to ensure linear growth throughout the experiments. Test compounds were added at 3.16-fold serial dilutions in DMSO from […] and DMSO content was normalized to 0.1%. Cells were incubated for 7 days at 37° C. and 5% CO2. A day 0 plate was seeded for each cell line and used as a standard control.
(§5) To measure cell viability, CellTiter-Glo 2.0 (Promega, G9242) luminescent growth indicator was used. 10 μL CellTiter-Glo reagent was added per well. Plates were placed on a plate shaker for 2 minutes in the dark and left to incubate off the shaker for another 8 minutes in the dark, for a total of 10 minutes. Plates were read using an EnVision plate reader (Perkin Elmer) using the Luminescence aperture and a measurement time of 0.1 second.
(§6) Data were analyzed in Genedata Screener®. IC50 values were determined by plotting % inhibition versus log compound concentration and using a one site dose response model. Raw data signals were normalized using 0.1% DMSO media only as background control, 0.1% DMSO with cells no compound as 100% viability (maximum signal), and day 0 0.1% DM with cells no compound as 0% viability (minimum signal).

[3] = biological target: Menin protein (Homo sapiens, UniProt O00255, DEL460-519); test: Menin/MLL fluorescence polarization (FP) assay; format: binding; settings: Menin 2 nM, cRho110-Ahx-MBM1/MBM2 peptide 1 nM
Sequence of Menin protein (O00255 with tags, fused parts or gaps DEL460-519): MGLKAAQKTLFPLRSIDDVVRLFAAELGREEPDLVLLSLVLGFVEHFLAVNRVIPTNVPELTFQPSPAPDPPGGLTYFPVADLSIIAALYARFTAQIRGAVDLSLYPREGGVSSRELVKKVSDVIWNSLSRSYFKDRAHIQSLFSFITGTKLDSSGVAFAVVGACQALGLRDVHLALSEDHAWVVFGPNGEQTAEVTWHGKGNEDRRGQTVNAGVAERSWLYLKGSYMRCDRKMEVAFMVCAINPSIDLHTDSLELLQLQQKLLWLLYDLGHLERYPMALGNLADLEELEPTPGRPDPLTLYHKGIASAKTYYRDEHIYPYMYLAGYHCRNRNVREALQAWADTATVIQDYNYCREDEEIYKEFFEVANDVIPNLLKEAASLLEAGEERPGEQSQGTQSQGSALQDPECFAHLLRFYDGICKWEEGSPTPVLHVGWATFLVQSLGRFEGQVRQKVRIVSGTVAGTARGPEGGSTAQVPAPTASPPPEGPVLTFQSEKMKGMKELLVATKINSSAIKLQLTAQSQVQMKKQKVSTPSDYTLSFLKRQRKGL
Description: Compounds were tested in a biochemical binding assay using Menin protein at 2 nM (N6his-tev-Menin_4i80, PB-20-1459) and the substrate cRho110-Ahx-MBM1/MBM2 peptide (UbiQ, UbiQ-Q20201030; cRh110-Ahx-[…]-QRVPALLLPPG-NH2) at 1 nM.
384 Low volume black plates (Corning #4514) were used. 5 μL/well compound or 3% DMSO was added at 10-fold serial dilutions in DMSO from 10 μM. 5 μL/well cRho110-Ahx-MBM1/MBM2 peptide or binding buffer (50 mM Tris pH 7.5, 50 mM NaCl, 1 mM TCEP, 0.01% BGG, 0.01% Brij-35) was added to all wells. 5 μL/well Menin protein or binding buffer (50 mM Tris pH 7.5, 50 mM NaCl, 1 mM TCEP, 0.01% BGG, 0.01% Brij-35) was added to all wells. Plates were read on an EnVision plate reader (Perkin Elmer) with excitation at 480 nm and emission at 535 nm P+S, and measured every 5 minutes for 180 minutes.
Data were analyzed in Genedata Screener®. IC50 values were determined by plotting % inhibition versus log compound concentration and using a one site dose response model. Raw data signals were normalized using 1% DMSO no Menin as 100% inhibitor control and 1% DMSO with Menin and no inhibitor as 0% inhibitor control.

[4] = Human liver microsomes (HLMs) intrinsic clearance assay; format: in vitro ADME; settings: human, microsomes, 1 µM, pH 7.4
[5] = test system: OCI-AML3 cells; test: Proliferation assay, OCI-AML3 (CellTiter-Glo, 7 days); format: cell-based, human
Description: as §2, §3, §4, §5, §6

[6] = test system: MOLM-13 cells; test: Proliferation assay, MOLM-13 (CellTiter-Glo, 7 days); format: cell-based, human
Summary of the method: as §1

[7] = test system: MOLM-13 cells; test: Cell death in MOLM-13 cell line, Compound 56-2 with BCL2 inhibitor venetoclax (CellTiter-Glo, 4 days); format: cell-based, human
Description: Test compound was dispensed using a Tecan compound dispenser into 384-well plates (Microplate 384-well, polypropylene, F-bottom; Greiner Bio-One, #781201) in a ten-by-ten response matrix to assess the combination effects of Menin inhibition (Compound 56-2) together with BCL-2 inhibition (venetoclax) at the following concentrations after subsequent cell seeding in 40 μL of growth media: 10 μM, 3.16 μM, 1 μM, 0.316 μM, 0.1 μM, 0.0316 μM, 0.01 μM, 0.00316 μM, […], and vehicle (DMSO; Sigma-Aldrich, D2650). Cells were seeded at 1000 cells per well and incubated at 37° C. and 5% CO2. MOLM-13 cells were grown in RPM1 1640 (Gibco, #21875091) supplemented with 10% FBS (Gibco; #10091-148) and 1% Pen/Strep (Gibco; #15140-122). After 4 days of compound treatment, plates were placed at room temperature for 15 minutes. 10 μL CellTiter-Glo reagent (Promega, #G9242) was added to the cells and incubated for 10 minutes in the dark on a plate shaker at room temperature. A backseal (Perkin Elmer; #6005199) was added to the plates and luminescence was measured at 0.1 sec/well in an Envision (Perkin Elmer). Data were normalized for each plate so that the average of control wells (DMSO) was set to 0%, and the maximum observed value across the plate was set as 100%. Data fitting was performed using Graphpad Prism and combination effect was assessed using SynergyFinder.

Compound | IC50 [1] | IC50 [2] | IC50 [3] | HLM CLint [4] | IC50 [5] | IC50 [6] | cell viability as monotherapy (in words) [7]
Cc1c(C(=O)[C@@H]2CCN(C(=O)[C@H]3NC[C@@H]4C[C@@H]43)[C@@H](C)C2)c2ccncc2n1-c1ccc(F)cc1C(=O)N(CC(F)(F)F)C(C)C (single isomer, unassigned) [Example 53-4, 2-(3-((2R*,4S*)-1-((1S,2S,5R)-3-Azabicyclo[3.1.0]hexane-2-carbonyl)-2-methylpiperidine-4-carbonyl)-2-methyl-1H-pyrrolo[2,3-c]pyridin-1-yl)-5-fluoro-N-isopropyl-N-(2,2,2-trifluoroethyl)benzamide] | > 10000 nM | 53 nM | 48 nM | 89 µL/min/mg | 118 nM | 71 nM | 
CC1(C)CCC(CN2CCN(c3ccc(C(=O)NS(=O)(=O)c4ccc(NCC5CCOCC5)c([N+](=O)[O-])c4)c(Oc4cnc5[nH]ccc5c4)c3)CC2)=C(c2ccc(Cl)cc2)C1 [venetoclax, reference compound] |  |  |  |  |  |  | cell viability loss was induced
